“Also recorded” adds a separate entry of the source.
Assays:
hNIS = biological target: T1, hNIS (Homo sapiens, UniProt Q92911); assay: inhibition of induced RAIU in hNIS-transduced F98 cells; format: cell-based
T1 construct: expressed in transfected cells; host or cells: F98 rat glioma cells infected with L-hNIS-SN recombinant retrovirus, G418-selected clone
T1 sequence (Q92911 1-643): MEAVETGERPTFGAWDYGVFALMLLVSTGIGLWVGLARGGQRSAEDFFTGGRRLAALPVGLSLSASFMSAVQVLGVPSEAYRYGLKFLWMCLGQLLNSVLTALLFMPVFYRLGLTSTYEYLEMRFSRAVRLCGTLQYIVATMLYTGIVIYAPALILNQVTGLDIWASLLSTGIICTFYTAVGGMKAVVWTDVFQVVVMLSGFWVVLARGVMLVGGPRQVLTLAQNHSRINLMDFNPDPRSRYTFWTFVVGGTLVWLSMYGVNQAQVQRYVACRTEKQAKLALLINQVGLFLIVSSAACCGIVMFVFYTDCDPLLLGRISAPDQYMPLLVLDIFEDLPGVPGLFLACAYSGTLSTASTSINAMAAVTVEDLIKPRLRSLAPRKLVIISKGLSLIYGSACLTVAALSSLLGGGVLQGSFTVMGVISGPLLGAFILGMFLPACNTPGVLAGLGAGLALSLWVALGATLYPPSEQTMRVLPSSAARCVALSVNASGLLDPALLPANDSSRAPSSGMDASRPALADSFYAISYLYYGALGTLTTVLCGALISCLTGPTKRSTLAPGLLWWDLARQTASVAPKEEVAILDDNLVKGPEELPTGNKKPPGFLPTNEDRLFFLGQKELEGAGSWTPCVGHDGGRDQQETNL
Experimental: NIS function in the hNIS-transduced F98 glioma cells was tested in vitro by radioiodide uptake assay^5 (RAIU). Cells (2×10^5 cells per well) were seeded in 24-well plates. At various times after seeding, the cells were incubated for 30 min at 37° C., 5.0% CO2 with growth media containing 2.0 μCi Na ^125I and 5-10 μM NaI carrier. The medium was aspirated and cells were quickly washed twice with ice-cold Hank's balanced salt solution (HBSS). Cells were then lysed by incubation with 95% ethanol. The radioactivity of the cell lysate was measured by a γ-counter (Packard Instruments, Downers Grove, Ill., USA). Experiments were performed in triplicate. The RAIU activity of the infected cells was expressed in terms of fold increase compared with that of mock-infected parental cells.

[1] = serial 123I scintigraphy, radioiodide retention in thyroid; format: in vivo, rat; conditions: in the thyroid, from time activity curve, tail vein injection
Experimental: (§1) Serial ^123I images were obtained to determine the retention of radioiodide in the hNIS-transduced tumors (FIG. 7A). The average survival time for rats implanted with 10^5 F98/hNIS glioma cells was about 14-16 days. For studies of ^123I retention, images were acquired on days 13 to 15 following tumor implantation at which time ^123I (0.25 mCi) was administered via tail vein injection. Modified conjugate images were obtained sequentially with the rat first in dorsal-ventral and then ventral-dorsal positions on the top of the LEUHR collimator at 5 min, 20 min, 1 hr, 4 hr, 24 hr, and 37 hr following injection. The acquisition time at 5 min post-injection image was 5 min, and the acquisition times at subsequent time points were corrected for the physical decay of ^123I. Regions of interest (ROI) were drawn over the tumor, thyroid, and shoulder region (as a background) in two views (vertex and then ventral) of pinhole images for each different time point, and the geometric means of the count rates (counts/pixel) for each ROI in each view were calculated. Biological half-life of radioiodine was estimated based on the time activity curve generated by plotting the tumor ROI count rates versus time.

F98/hNIS gliomas [2] = assay: serial 123I scintigraphy, radioiodide retention in tumor; format: in vivo, rat
Experimental: (§2) Fischer rats weighing 175 to 200 grams (Harlan Sprague Dawley, Indianapolis, Ind.) were stereotactically implanted with tumor cells.^11,21 The tumor cells were either F98 cells or F98 cells which had been infected with and expressed a wild-type NIS protein (see Example 1). All experimental procedures received approval from Institutional Laboratory Animal Care and Use Committee of the Ohio State University. Briefly, rats were sedated by intraperitoneal (i.p.) administration of 120 mg of ketamine/20 mg of xylazine (Fort Dodge, Fort Dodge, IA) per kg of body weight, after which a plastic screw (Arrow Machine Manufacturing, Inc., Richmond, VA) was embedded into the cranium. F98 cells were injected within 10 to 15 seconds through a central hole in the plastic screw into the right hemisphere at a concentration of 10^3 (for therapeutic study) or 10^5 (for imaging study) cells in 10 μl of serum-free DMEM containing 1.4% agarose with a gelling temperature of <30° C. The screw hole was filled with bone wax immediately following withdrawal of the needle, and the operative field was flushed with betadine before the scalp incision was closed with a single sterilized clip.
as §1, with “The acquisition time at 5 min post-injection image was 5 min, and the acquisition times at subsequent time points were corrected for the physical decay of ^123I.” left out, “Biological half-life of radioiodine was estimated based on the time activity curve generated by plotting the tumor ROI count rates versus time.” left out

[3] = tested on: endogenous rat NIS in thyroid; assay: thyroid 99mTcO4 scintigraphy and NIS Western blot in rats fed T4-supplemented diet; format: in vivo
Experimental: Western blot analysis was performed as previously described.^23 Briefly, the tumors were removed from the animals and homogenized in a homogenizing buffer (10 mM Tris-HCl (pH 7.5), 5 mM NaCl, 1 mM EDTA, 0.1 mM PMSF, 50 μg/ml leupeptin) containing 0.25 M sucrose. The lysates were centrifuged at 700 g for 10 min at 4° C. The supernatants were further centrifuged at 200,000 g for 60-90 min at 4° C. to obtain membrane fractions, which were resuspended in homogenizing buffer without sucrose and kept at −80° C. until use. The membrane fractions ([…] per lane) were solubilized for 30 min at 37° C. in the same volume of reducing sample buffer (0.125 M Tris-HCl (pH 6.8), 4% SDS, 10% β-mercaptoethanol, 20% glycerol) and subjected to 4-20% gradient or 7.5% SDS-PAGE. The proteins were transferred on to a nitrocellulose filter which was then blocked with 5% nonfat dry mild in TBST buffer (10 mM Tris-HCl (pH 8.0), 150 mM NaCl, 0.1% Tween 20) at 4° C. overnight. […]
Rats fed a T4-supplemented diet were expected to have reduced RAIU in thyroid, as the endogenous NIS expression and activity in thyroid tissues is TSH-dependent. […] In comparison, thyroid was readily detectable by ^99mTcO4 scintigraphy in rats fed a normal diet. […]

F98/LXSN tumors = assay: 131I therapy study, intracerebral empty vector transduced tumors; format: in vivo, rat
Experimental: as §2
For ^131I therapy studies, rats were implanted stereotatically with 1×10^3 F98 cells on day 0, and the animals were divided into 3 groups: empty vector transduced tumors with ^131I treatment (F98/LXSN+^131I), hNIS transduced tumors without ^131I treatment (F98/hNIS—^131I), hNIS transduced tumors with ^131I treatment (F98/hNIS+^131I). Each group contained 12 rats. To minimize exposure of the thyroid gland to ^131I, rats were placed on 1 ppm thyroxine (T4)-supplemented diet (Harlan Teklad, Madison, Wis.) beginning one week prior to the first day of ^131I treatment. […] Therefore, animals displaying these signs were sacrificed, and survival times were determined from the day of tumor implantation to the day of sacrifice plus 1 day.^21,24 The observers were not blinded to sacrifice the rats. […] Tumor size was measured as (the longest length)×(the length perpendicular to the longest length) in tumor sections. […]

F98/hNIS tumors = assay: 131I therapy study, intracerebral hNIS-transduced tumors; format: in vivo, rat
Experimental: as §2
For ^131I therapy studies, rats were implanted stereotatically with 1×10^3 F98 cells on day 0, and the animals were divided into 3 groups: empty vector transduced tumors with ^131I treatment (F98/LXSN+^131I), hNIS transduced tumors without ^131I treatment (F98/hNIS—^131I), hNIS transduced tumors with ^131I treatment (F98/hNIS+^131I). Each group contained 12 rats. To minimize exposure of the thyroid gland to ^131I, rats were placed on 1 ppm thyroxine (T4)-supplemented diet (Harlan Teklad, Madison, Wis.) beginning one week prior to the first day of ^131I treatment. Animals received three i.p. injections, 4 mCi of ^131I per injection, on days 12, 14 and 16 post-implantation for a total of 12 mCi. The tumor size index on day 14 was assumed to be ˜2 mm^2 based on a previous study.^18 Animals were weighed three times per week. […] Therefore, animals displaying these signs were sacrificed, and survival times were determined from the day of tumor implantation to the day of sacrifice plus 1 day.^21,24 The observers were not blinded to sacrifice the rats. To confirm that all animals had progressively growing tumors at the time of death, the brains were removed, fixed in 10% neutral buffered formalin, and then 2-mm coronal sections were cut with a rat brain slicer (Zivic-Miller Laboratories, Inc., Allison Park, PA), and processed for routine histopathological examination. Tumor size was measured as (the longest length)×(the length perpendicular to the longest length) in tumor sections. Survival among different experimental groups was compared using unpaired t test as well as Log-rank test. Tumor sizes among different experimental groups were compared using unpaired t test. The P value of <0.05 were considered statistically significant.

parental F98 tumors = assay: 99mTcO4 scintigraphy of intracerebral parental F98 tumors; format: in vivo, rat; conditions: about 20 min after tail vein injection
Experimental: as §2
(§3) Rats were anesthetized by i.p. injection of ketamine/xylazine, and then 2.0 mCi of ^99mTcO4 in 0.2 ml volume was administered via tail vein injection. […]

F98/hNIS gliomas [4] = assay: 99mTcO4 scintigraphy of intracerebral F98/hNIS gliomas; format: in vivo, rat; conditions: about 20 min after tail vein injection
Experimental: as §2, §3

[5] = F98/LXSN with 131I treatment group
[6] = F98/hNIS with 131I treatment group

With `[O-][Cl+3]([O-])([O-])O` [NaClO4, sodium perchlorate] the “effect on induced RAIU” value (hNIS) was “suppressed; also recorded: inhibited”.

For `[123IH]` [123I], the “biological half-life of 123I” value [1] was “greater than 20 hours”, the “123I uptake in tumor” value (F98/hNIS gliomas [2]; F98/hNIS gliomas, by 37 hours post-injection) was “barely detectable” and the “radioiodide uptake in tumor” value (F98/hNIS gliomas [2]; F98/hNIS gliomas, through 24 hrs post-injection) was “evident”. For the same molecule, the “biological half-life of 123I” value (F98/hNIS gliomas [2]; in F98/hNIS gliomas, from time activity curve, tail vein injection) was 10 hours.

In the case of `N[C@@H](Cc1cc(I)c(Oc2cc(I)c(O)c(I)c2)c(I)c1)C(=O)O` [T4, thyroxine], the “NIS glycoprotein in thyroid by Western blot” value ([3]; rats fed T4-supplemented diet) is reported as “barely detected” and the “thyroid detectability by 99mTcO4 scintigraphy” value ([3]; rats fed T4-supplemented diet for 11 days) is reported as “not detectable”.

For `[131IH]` [131I], the average survival time (F98/LXSN tumors; F98/LXSN tumors with 131I treatment, 3 i.p. injections, total 12 mCi) was 30.4 ± 3.2 days, the “tumor size at sacrifice, length perpendicular to the longest length” value (F98/LXSN tumors; [5]) was 6.4±1.6 mm and the “tumor size at sacrifice, longest length” value (F98/LXSN tumors; [5]) was 8.7±1.6 mm. The average survival time (F98/hNIS tumors; F98/hNIS tumors with 131I treatment, 3 i.p. injections, total 12 mCi) was 45 ± 8.6 days, the “prolongation of average survival time” value (F98/hNIS tumors; F98/hNIS with 131I compared to F98/LXSN with 131I, P<0.01) was roughly 2 weeks and the “prolongation of average survival time” value (F98/hNIS tumors; F98/hNIS with 131I compared to F98/hNIS without 131I, P<0.05) was 6 days. For the same molecule, the “tumor size at sacrifice, length perpendicular to the longest length” value (F98/hNIS tumors; [6]) was 6.1±1.5 mm and the “tumor size at sacrifice, longest length” value (F98/hNIS tumors; [6]) was 8.5±1.9 mm.

In the case of `[O]=[99Tc](=[O])(=[O])[O-]` [99mTcO4], the “99mTcO4 uptake in tumor” value (parental F98 tumors) is reported as “no ^99mTcO4 uptake was found” and the “99mTcO4 uptake in tumor” value (F98/hNIS gliomas [4]) is reported as “intense”.

— US20060004191A1, “Modified sodium iodide symporter proteins and genes for imaging and cancer therapy” (priority 2002, published 2006)
